Patent US20130189354A1, “Novel Pharmaceutical Compositions for Treating Chronic Pain and Pain Associated with Neuropathy” (priority 2010, published 2013)
Counter-ions that a name gives are not always drawn. Like-named read-outs stand apart in the source and are kept apart here.

Experiments:
[1] = system: diabetic neuropathy and fibromyalgia; experiment: Pain relief in patients with diabetic neuropathy and fibromyalgia; type: in vivo, human; conditions: 400 mg of tramadol per day
Excerpt: In certain preferred embodiments, the invention is directed in part to synergistic combinations of dextromethorphan or other NMDA receptor antagonist in an amount sufficient to render a therapeutic effect together with an anticonvulsant and/or a tricyclic anti-depressant and tramadol or its analog, such that an analgesic effect is attained which is at least about 5 (and preferably at least about 10) times greater than that obtained with the dose of tramadol or its analog alone. This is exemplified by the apparent fact that patients with diabetic neuropathy and fibromyalgia, who could not get even 30-40% reduction in pain even with the administration of 400 mg of tramadol per day, can have shown 90-100% pain relief with the inventive composition containing 35 mg of tramadol, 45 mg of dextromethorphan and 90 mg of gabapentin over a period of 12-16 hours.
(§1) The synergistic effect of the combination can further be appreciated using Table 1.

[2] = cited from earlier work
[3] = system: pain; conditions: single oral dose of tramadol 100 mg; cited from earlier work
[4] = target: μ-opiate receptor (Homo sapiens, UniProt P35372); conditions: cited from earlier work
Sequence of μ-opiate receptor (P35372 whole entry, species assumed): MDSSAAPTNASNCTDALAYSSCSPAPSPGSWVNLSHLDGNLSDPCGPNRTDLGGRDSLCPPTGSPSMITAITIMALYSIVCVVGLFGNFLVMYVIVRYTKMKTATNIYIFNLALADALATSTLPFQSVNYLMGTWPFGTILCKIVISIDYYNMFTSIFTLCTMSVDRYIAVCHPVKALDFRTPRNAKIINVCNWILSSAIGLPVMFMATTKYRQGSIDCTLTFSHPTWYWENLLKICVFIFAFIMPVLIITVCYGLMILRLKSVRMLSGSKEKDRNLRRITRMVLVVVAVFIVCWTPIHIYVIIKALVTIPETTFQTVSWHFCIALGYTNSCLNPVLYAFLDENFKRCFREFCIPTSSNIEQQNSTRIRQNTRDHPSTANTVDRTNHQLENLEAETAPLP

[5] = system: neuropathy-induced allodynia; conditions: in vivo; cited from earlier work
[6] = system: α2δ subunit of voltage-gated calcium channels; conditions: cited from earlier work
[7] = system: Diabetic Neuropathy; conditions: literature values; Tramadol Hydrochloride 400 mg/day (Sindrup 1999), Gabapentin 3600 mg/day (Marchettini 2004); cited from earlier work
[8] = system: Fibromyalgia; conditions: literature values; Tramadol Hydrochloride 400 mg/day (Biasi 1998; Russell 2000), Gabapentin 3600 mg/day (Lesley 2007); cited from earlier work
[9] = patients with epilepsy; cited from earlier work
[10] = system: Diabetic Neuropathy; experiment: Pain relief in diabetic neuropathy patients (Table 1); type: in vivo, human; conditions: individual components at the doses present in TLI-0326 (40.4, 100, 200 mg/day); would have very little effect
Excerpt: as §1

[11] = system: Fibromyalgia; experiment: Pain relief in fibromyalgia patients (Table 1); type: in vivo, human; conditions: individual components at the doses present in TLI-0326 (40.4, 100, 200 mg/day); would have very little effect
Excerpt: as §1

[12] = system: postherpetic neuralgia; conditions: cited from earlier work
[13] = system: pain; conditions: relative to tramadol; cited from earlier work
[14] = system: painful diabetic neuropathy; conditions: oral; cited from earlier work
[15] = system: postherpetic neuralgia; conditions: oral; cited from earlier work
[16] = system: central poststroke pain; conditions: 10 of 15 patients; cited from earlier work
[17] = rats, i.v. administration; cited from earlier work
[18] = cited from earlier work; remark: listed apart in the source
[19] = system: uptake of dopamine; conditions: cited from earlier work
[20] = system: a or β adrenergic, muscarinic, histaminergic, and dopaminergic receptors; conditions: cited from earlier work
[21] = diabetic peripheral neuropathy trials; cited from earlier work
[22] = fibromyalgia trials, cited from earlier work
[23] = system: post-operative pain; conditions: third molar surgery; cited from earlier work

## COc1cccc(C2(O)CCCCC2CN(C)C)c1 (racemic) [tramadol, (+/−)-trans (RR,SS)-2-[(di-methylamino)methyl]-1-(3-methoxyphenyl)cyclohexanol]
[1]
  reduction in pain: 30-40%
[2]; multiple dose treatment with tramadol
  accumulation during multiple dose treatment: approximately 2 fold
[2]; oral administration
  bioavailability: 68%
  time to peak serum concentrations: ≤ 2 h
[2]; single oral dose of 100 mg tramadol
  half-life: 5.1 h
[3]
  duration of the analgesic effect: about 6 hours
[4]; relative to codeine
  affinity for opiate receptors, fold less than codeine: 10 fold
[4]; relative to d-propoxyphene
  affinity for opiate receptors, fold less than d-propoxyphene: 100 fold
[4]; relative to dextromethorphan
  affinity for opiate receptors relative to dextromethorphan: equivalent
[4]; relative to morphine
  affinity for opiate receptors, fold less than morphine: 6,000 fold

## C[C@@H]1CCC[C@](CN)(CC(=O)O)C1 [(1R,3R)3-MeGBP]
[5]
  reversal of neuropathy-induced allodynia: ineffective
[6]
  IC50: > 10000 nM

## C[C@@H]1CCC[C@@](CN)(CC(=O)O)C1 [(1S,3R)3-MeGBP]
[5]
  reversal of neuropathy-induced allodynia: effectively reversed
[6]
  IC50: 42 nM

## NCC1(CC(=O)O)CCCCC1 [Gabapentin]
[7]
  Pain Relief (percent of reduction in pain) Diabetic Neuropathy: <50%
[8]
  Pain Relief (percent of reduction in pain) Fibromyalgia: <50%
[9]
  steady-state predose (Cmin) concentration in cerebrospinal fluid as share of plasma concentration: approximately 20%

## O=S(=O)([O-])[O-].[Mg+2] [Magnesium (present as magnesium sulfate)]
[10]
  Pain Relief (percent of reduction in pain) Diabetic Neuropathy: <10%
[11]
  Pain Relief (percent of reduction in pain) Fibromyalgia: <10%
[12]; 30 mg kg-1 i.v., at 20 and 30 min (P=0.016), not at 10 min
  pain scores compared with placebo: significantly lower
[12]; i.v., postherpetic neuralgia
  safety, tolerability and efficacy: safe, well-tolerated and effective

## CN(C)C[C@H]1CCCC[C@]1(O)c1cccc(O)c1 [O-desmethyltramadol (M1), O-desmethyltramadol]
[13]
  analgesic potency relative to parent drug: at least twice the analgesic potency of the parent drug

## COc1cccc(C2(O)CCCCC2CN(C)C)c1 (stereo not drawn) [Tramadol Hydrochloride]
[7]
  Pain Relief (percent of reduction in pain) Diabetic Neuropathy: <35%
[8]
  Pain Relief (percent of reduction in pain) Fibromyalgia: <30%
[10]
  Pain Relief (percent of reduction in pain) Diabetic Neuropathy: <10%
[11]
  Pain Relief (percent of reduction in pain) Fibromyalgia: <10%

## CN(C)CCC=C1c2ccccc2CCc2ccccc21 [amitriptyline]
[14]
  share of patients with good or moderate response: three-quarters
[15]
  share of patients with good or moderate response: about two-thirds
[16]
  patients with superior relief compared with placebo: 67%

## COc1cc(CNC(=O)CCCCC=CC(C)C)ccc1O [capsaicin, 8-methyl-N-vanillyl-6-nonenamide]
[17]
  time to distribution to brain, spinal cord, liver and blood: ≤ 20 min

## CCN(CC)C(=O)C1(c2ccccc2)CC1CN.Cl (stereo not drawn) [milnacipran, 1-phenyl-1-diethyl-aminocarbonyl-2-aminomethyl-cyclopropane (Z) hydrochloride]
[18]; 100 mg/day twice daily
  adverse event: constipation: 10%
  adverse event: headache: 9%
[18]; 200 mg/day twice daily
  adverse event: abdominal pain: 7%
  adverse event: headache: 8%
  adverse event: nausea and vomiting: 7%
[19]
  effect on uptake of dopamine: does not affect
[20]
  affinity for receptors: no affinity

## CC(C)C[C@H](CN)CC(=O)O [pregabalin]
[21]
  patients discontinued prematurely due to adverse reactions: 9%
  withdrawal due to asthenia, confusion, and peripheral edema (each): approximately 1%
[22]; 150-600 mg/day
  patients discontinued prematurely due to adverse reactions: 19%
[22]
  withdrawal due to fatigue, headache, balance disorder, and weight increased (each): approximately 1%

## N[C@@H](Cc1c[nH]c2ccccc12)C(=O)O [tryptophan]
[23]
  effect on post-operative pain or consumption of other analgesics: no effect
